Several values for one entry are separate records, joined by “and”; a condition that tells them apart may be missing. Identical values can stand only once. Like-named read-outs stand apart in the source and are kept apart here.
System: AsPC-1 cells
Test: Cell proliferation assay, chemodrug + ATR inhibitor (Incucyte confluence, 72 h);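 note: underlying read-out for every value is AsPC-1 confluence after 72 h incubation at 37 °C and 5% CO2, divided by that well's starting confluence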
Settings: for EC50: Homo sapiens; for Ratio: Response / Response vehicle (mean)
[1] = AsPC-1, Experiment GEM (no ATRi), single replicates R1-R3, listed as 5-FU
[2] = AsPC-1, Experiment GEM+ATRi_dose1, single replicates R1-R3, listed as 5-FU
[3] = AsPC-1, Experiment GEM+ATRi_dose2, single replicates R1-R3, listed as 5-FU
[4] = AsPC-1, Experiment GEM+ATRi_dose3, single replicates R1-R3, listed as 5-FU
[5] = Drug 0 nM + ATRi 3 nM (ATRi alone, GEM+ATRi_dose1 series), replicates R1-R3, listed as 5-FU
[6] = Drug 0 nM + ATRi 10 nM (ATRi alone, GEM+ATRi_dose2 series), replicates R1-R3, listed as 5-FU
[7] = Drug 0 nM + ATRi 30 nM (ATRi alone, GEM+ATRi_dose3 series), replicates R1-R3, listed as 5-FU
[8] = Drug 1 nM + ATRi 3 nM (GEM+ATRi_dose1), replicates R1-R3, listed as 5-FU
[9] = Drug 1 nM + ATRi 10 nM (GEM+ATRi_dose2), replicates R1-R3, listed as 5-FU
[10] = Drug 1 nM + ATRi 30 nM (GEM+ATRi_dose3), replicates R1-R3, listed as 5-FU
[11] = Drug 3 nM + ATRi 3 nM (GEM+ATRi_dose1), replicates R1-R3, listed as 5-FU
[12] = Drug 3 nM + ATRi 30 nM (GEM+ATRi_dose3), replicates R1-R3, listed as 5-FU
[13] = Drug 3 nM alone, ATRi 0 nM (experiment 'GEM'), replicates R1-R3, listed as 5-FU
[14] = Drug 10 nM + ATRi 3 nM (GEM+ATRi_dose1), replicates R1-R3, listed as 5-FU
[15] = Drug 10 nM + ATRi 10 nM (GEM+ATRi_dose2), replicates R1-R3, listed as 5-FU
[16] = Drug 10 nM + ATRi 30 nM (GEM+ATRi_dose3), replicates R1-R3, listed as 5-FU
[17] = Drug 10 nM alone, ATRi 0 nM (experiment 'GEM'), replicates R1-R3, listed as 5-FU
[18] = Drug 30 nM + ATRi 3 nM (GEM+ATRi_dose1), replicates R1-R3, listed as 5-FU
[19] = Drug 30 nM + ATRi 10 nM (GEM+ATRi_dose2), replicates R1-R3, listed as 5-FU
[20] = Drug 30 nM + ATRi 30 nM (GEM+ATRi_dose3), replicates R1-R3, listed as 5-FU
[21] = Drug 100 nM + ATRi 3 nM (GEM+ATRi_dose1), replicates R1-R3
[22] = Drug 100 nM + ATRi 10 nM (GEM+ATRi_dose2), replicates R1-R3, listed as 5-FU
[23] = Drug 100 nM + ATRi 30 nM (GEM+ATRi_dose3), replicates R1-R3, listed as 5-FU
[24] = Drug 100 nM alone, ATRi 0 nM (experiment 'GEM'), replicates R1-R3, listed as 5-FU
[25] = Drug 300 nM + ATRi 3 nM (GEM+ATRi_dose1), replicates R1-R3
[26] = Drug 300 nM + ATRi 10 nM (GEM+ATRi_dose2), replicates R1-R3, listed as 5-FU
[27] = Drug 300 nM + ATRi 30 nM (GEM+ATRi_dose3), replicates R1-R3, listed as 5-FU
[28] = Drug 300 nM alone, ATRi 0 nM (experiment 'GEM'), replicates R1-R3, listed as 5-FU
[29] = Drug 1000 nM + ATRi 3 nM (GEM+ATRi_dose1), replicates R1-R3
[30] = Drug 1000 nM + ATRi 30 nM (GEM+ATRi_dose3), replicates R1-R3, listed as 5-FU
[31] = Drug 1000 nM alone, ATRi 0 nM (experiment 'GEM'), replicates R1-R3, listed as 5-FU
[32] = Drug 3000 nM + ATRi 3 nM (GEM+ATRi_dose1), replicates R1-R3
[33] = Drug 3000 nM + ATRi 10 nM (GEM+ATRi_dose2), replicates R1-R3, listed as 5-FU
[34] = Drug 3000 nM + ATRi 30 nM (GEM+ATRi_dose3), replicates R1-R3, listed as 5-FU
[35] = Drug 3000 nM alone, ATRi 0 nM (experiment 'GEM'), replicates R1-R3, listed as 5-FU
[36] = drug 100 nM + ATRi 3 nM, listed as 5-FU
[37] = drug 300 nM + ATRi 3 nM, listed as 5-FU
[38] = drug 1000 nM + ATRi 3 nM, listed as 5-FU
[39] = drug 3000 nM + ATRi 3 nM, listed as 5-FU

Protocol: Cells were seeded at 5000 cells/well into 96-well flat bottom plates (Eppendorf) and allowed to attach overnight. […] Cells were incubated for 72 h at 37 °C and 5% CO2. Cell confluence readouts at 72 h were either normalized to their initial confluence using the Incucyte software (AsPC-1) or used without prior normalization (all others). […] Each experiment was performed in triplicates, the data was plotted as mean ± standard deviation (s.d.).

## O=c1[nH]cc(F)c(=O)[nH]1 [5-fluorouracil]
[1]
  Curve bottom: 1.02 and 1.01 and 1.04
  Curve slope: 1.53 and 1.20 and 1.02
  Curve top: 0.52 and 0.45 and 0.53
[2]
  Curve bottom: 1.03 and 1.04
  Curve slope: 1.17 and 1.72 and 2.53
  Curve top: 0.34 and 0.38 and 0.50
AsPC-1, Experiment GEM+ATRi_dose2, single replicates R1-R3
  Curve bottom: 1.02
[3]
  Curve slope: 2.12 and 2.47 and 2.30
  Curve top: 0.44 and 0.42 and 0.41
[4]
  Curve bottom: 0.92 and 0.93 and 0.96
  Curve slope: 7.78 and 7.99 and 4.74
  Curve top: 0.42 and 0.41
[5]
  Response: 93.23 and 93.25
  Ratio: 1.02 and 1.04
[6]
  Response: 93.23 and 93.25
  Ratio: 1.02 and 1.04
[7]
  Response: 86.00 and 86.93
  Ratio: 0.94 and 0.97
[8]
  Response: 93.84 and 90.46
  Ratio: 1.03 and 1.01
[9]
  Response: 92.14 and 89.28
  Ratio: 1.01 and 1.00
[10]
  Response: 85.34 and 86.33
  Ratio: 0.94 and 0.97
Drug 1 nM alone, ATRi 0 nM (experiment 'GEM'), replicates R1-R3, listed as 5-FU
  Response: 94.45
[11]
  Response: 93.43 and 94.40
  Ratio: 1.03 and 1.06
Drug 3 nM + ATRi 10 nM (GEM+ATRi_dose2), replicates R1-R3, listed as 5-FU
  Response: 92.25 and 90.36
[12]
  Response: 84.22 and 84.05
  Ratio: 0.92 and 0.94
[13]
  Response: 90.32
  Ratio: 0.99 and 1.05
[14]
  Response: 92.50 and 91.39
  Ratio: 1.01 and 1.02
[15]
  Response: 91.53 and 89.96
  Ratio: 1.00 and 1.01
[16]
  Response: 83.67 and 82.94
  Ratio: 0.92 and 0.93
[17]
  Response: 89.98 and 90.52
  Ratio: 0.99 and 1.01
[18]
  Response: 93.40 and 92.15
  Ratio: 1.02 and 1.03
[19]
  Response: 91.74 and 91.80
  Ratio: 1.01 and 1.03
[20]
  Response: 86.01 and 86.29
  Ratio: 0.94 and 0.97
Drug 30 nM alone, ATRi 0 nM (experiment 'GEM'), replicates R1-R3, listed as 5-FU
  Response: 91.55 and 89.05
[21]
  Response: 92.03
  Ratio: 1.03
[22]
  Response: 90.88 and 90.27
  Ratio: 1.00 and 1.01
[23]
  Response: 85.31 and 85.49
  Ratio: 0.94 and 0.96
[24]
  Response: 92.05 and 91.30
  Ratio: 1.01 and 1.02
[25]
  Response: 79.74
  Ratio: 0.89
[26]
  Response: 62.48 and 67.47
  Ratio: 0.69 and 0.76
[27]
  Response: 51.19 and 52.50
  Ratio: 0.56 and 0.59
[28]
  Response: 82.78 and 83.05
  Ratio: 0.91 and 0.93
[29]
  Response: 50.06
  Ratio: 0.56
Drug 1000 nM + ATRi 10 nM (GEM+ATRi_dose2), replicates R1-R3, listed as 5-FU
  Response: 44.01 and 42.89
[30]
  Response: 38.74 and 41.39
  Ratio: 0.43 and 0.46
[31]
  Response: 71.08 and 72.31
  Ratio: 0.78 and 0.81
[32]
  Response: 44.54
  Ratio: 0.50
[33]
  Response: 35.64 and 36.17
  Ratio: 0.39 and 0.41
[34]
  Response: 35.72 and 32.91
  Ratio: 0.39 and 0.37
[35]
  Response: 54.65 and 60.00
  Ratio: 0.60 and 0.67
ASPC1, 72 h, AsPC-1, Experiment GEM (no ATRi), single replicates R1-R3
  EC50: 1020 nM
ASPC1, 72 h, read-out: EC50 mean [nM], AsPC-1, Experiment GEM (no ATRi), mean of R1-R3, repeated in each replicate line
  EC50: 1190 nM
ASPC1, 72 h, read-out: pEC50, AsPC-1 (converted), Experiment GEM (no ATRi), single replicates R1-R3
  EC50: 1020 nM
ASPC1, read-out: EC50 mean [nM], AsPC-1, Experiment GEM (no ATRi), mean of R1-R3, repeated in each replicate line
  EC50: 1190 nM
ASPC1, read-out: EC50 mean [nM], AsPC-1, Experiment GEM+ATRi_dose1, mean of R1-R3, repeated in each replicate line
  EC50: 619 nM
ASPC1, read-out: EC50 mean [nM], AsPC-1, Experiment GEM+ATRi_dose2, mean of R1-R3, repeated in each replicate line
  EC50: 326 nM
ASPC1, read-out: EC50 mean [nM], AsPC-1, Experiment GEM+ATRi_dose3, mean of R1-R3, repeated in each replicate line
  EC50: 266 nM
Drug 1 nM alone, ATRi 0 nM (experiment 'GEM'), replicates R1-R3
  Ratio: 1.04
Drug 3 nM + ATRi 10 nM (GEM+ATRi_dose2), replicates R1-R3
  Ratio: 1.01
Drug 30 nM alone, ATRi 0 nM (experiment 'GEM'), replicates R1-R3
  Ratio: 1.00
Drug 1000 nM + ATRi 10 nM (GEM+ATRi_dose2), replicates R1-R3
  Ratio: 0.48
Drug 1 nM + ATRi 3 nM
  Ratio: 1.05
  Response: 97.06
Drug 1 nM + ATRi 10 nM
  Ratio: 1.03
  Response: 94.90
Drug 1 nM + ATRi 30 nM
  Ratio: 0.93
  Response: 85.74
Drug 1 nM alone (ATRi 0 nM)
  Ratio: 1.02
  Response: 94.29
Drug 3 nM + ATRi 3 nM
  Ratio: 1.01
  Response: 93.28
Drug 3 nM + ATRi 10 nM
  Ratio: 0.98
  Response: 90.39
Drug 3 nM + ATRi 30 nM
  Ratio: 0.92
  Response: 84.88
Drug 3 nM alone (ATRi 0 nM)
  Ratio: 1.00
  Response: 92.53
Drug 10 nM + ATRi 3 nM
  Ratio: 1.01
  Response: 93.05
Drug 10 nM + ATRi 10 nM
  Ratio: 1.01
  Response: 92.81
Drug 10 nM + ATRi 30 nM
  Ratio: 0.91
  Response: 83.72
Drug 10 nM alone (ATRi 0 nM)
  Ratio: 1.02
  Response: 93.59
Drug 30 nM + ATRi 3 nM
  Ratio: 1.02
  Response: 93.52
Drug 30 nM + ATRi 10 nM
  Ratio: 1.00
  Response: 91.78
Drug 30 nM + ATRi 30 nM
  Ratio: 0.94
  Response: 86.53
Drug 30 nM alone (ATRi 0 nM)
  Ratio: 1.02
  Response: 94.07
[36]
  Ratio: 1.02 and 1.04
  Response: 94.22 and 94.47
Drug 100 nM + ATRi 10 nM
  Ratio: 1.01
  Response: 93.45
Drug 100 nM + ATRi 30 nM
  Ratio: 0.92
  Response: 85.12
Drug 100 nM alone (ATRi 0 nM)
  Ratio: 1.03
  Response: 94.67
[37]
  Ratio: 0.84 and 0.85
  Response: 77.35 and 77.27
Drug 300 nM + ATRi 10 nM
  Ratio: 0.76
  Response: 69.87
Drug 300 nM + ATRi 30 nM
  Ratio: 0.58
  Response: 53.83
Drug 300 nM alone (ATRi 0 nM)
  Ratio: 0.95
  Response: 87.11
[38]
  Ratio: 0.66 and 0.57
  Response: 61.14 and 51.57
Drug 1000 nM + ATRi 10 nM
  Ratio: 0.52
  Response: 47.87
Drug 1000 nM + ATRi 30 nM
  Ratio: 0.43
  Response: 39.31
Drug 1000 nM alone (ATRi 0 nM)
  Ratio: 0.78
  Response: 71.77
[39]
  Ratio: 0.46 and 0.41
  Response: 42.27 and 37.14
Drug 3000 nM + ATRi 10 nM
  Ratio: 0.43
  Response: 39.36
Drug 3000 nM + ATRi 30 nM
  Ratio: 0.42
  Response: 38.38
Drug 3000 nM alone (ATRi 0 nM)
  Ratio: 0.60
  Response: 55.50
Chemodrug + three sub-EC50 doses of Elimusertib
  sensitization of AsPC-1 cells to the chemodrug by Elimusertib: sensitized

Source: PMC11876601 (Molecular Systems Biology, 2025)
